Results from US20240182445A1 (ONO PHARMACEUTICAL CO., LTD., priority 2019, published 2024).

Each compound was assayed against T1, human TREK-1 (Homo sapiens, UniProt O95069) (assay: TREK-1 Thallium (Tl+) flux assay, Method 1). Details: TREK-1 Thallium (Tl+) flux assay, Method 1.
T1 construct: expressed in transfected cells
T1 sequence (O95069 1-426): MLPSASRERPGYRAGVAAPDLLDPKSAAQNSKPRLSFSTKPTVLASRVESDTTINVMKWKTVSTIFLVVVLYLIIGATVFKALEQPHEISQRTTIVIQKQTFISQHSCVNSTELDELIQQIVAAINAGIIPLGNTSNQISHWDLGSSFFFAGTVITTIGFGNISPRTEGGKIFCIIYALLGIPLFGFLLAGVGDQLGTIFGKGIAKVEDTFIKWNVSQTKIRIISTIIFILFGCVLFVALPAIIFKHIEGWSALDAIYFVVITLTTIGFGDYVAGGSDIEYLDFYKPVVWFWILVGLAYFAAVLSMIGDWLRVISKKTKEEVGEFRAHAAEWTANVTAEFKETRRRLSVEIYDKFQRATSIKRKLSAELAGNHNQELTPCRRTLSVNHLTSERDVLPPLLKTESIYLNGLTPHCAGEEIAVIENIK
Format: cell-based
In short: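 Readout: Thallos fluorescence ratio, taken 25 s post-thallium relative to the pre-thallium baseline average, then converted to % inhibition. Cells were CHO-K1 stably expressing human TREK-1, dye-loaded and exposed to test compound (vehicle 0.3% DMSO) for 10 min prior to thallium stimulation.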

IC50 [nM]	Compound
2540	Cc1cc(OCc2ccccc2)ccc1NC(=O)c1c(Cl)cnn1C1CC2(C1)CN(C(=O)C1CC1)C2 [Compound 406, N-(4-(benzyloxy)-2-methylphenyl)-4-chloro-1-(2-(cyclopropanecarbonyl)-2-azaspiro[3.3]heptan-6-yl)-1H-pyrazole-5-carboxamide]
4850	Cc1cc(OCc2ccccc2)ccc1NC(=O)c1c(Cl)cnn1CC1CN(C(=O)C2CCC2)CCO1 (stereo not shown) [Compound 424, N-(4-(benzyloxy)-2-methylphenyl)-4-chloro-1-((4-(cyclobutanecarbonyl)morpholin-2-yl)methyl)-1H-pyrazole-5-carboxamide]
4190	COc1ncc(-c2cnc(NC(=O)c3c(Cl)cnn3C3CCN(C(=O)OC(C)(C)C)CC3)c(C)c2)cn1 [Compound 419, tert-butyl 4-(4-chloro-5-((5-(2-methoxypyrimidin-5-yl)-3-methylpyridin-2-yl)carbamoyl)-1H-pyrazol-1-yl)piperidine-1-carboxylate]

Same assay, conditions: TREK-1 Thallium (Tl+) flux assay; no *^12 (Method 2) mark on these rows

IC50 [nM]	Compound
680	COc1ncc(-c2cnc(NC(=O)c3c(Cl)cnn3C3CCN(C(=O)OC(C)(C)C)CC3)c(C)c2)cc1F [Compound 383, tert-butyl 4-(4-chloro-5-((5′-fluoro-6′-methoxy-5-methyl-[3,3′-bipyridin]-6-yl)carbamoyl)-1H-pyrazol-1-yl)piperidine-1-carboxylate]
560	CC(=O)N1CCN(CCn2ncc(Cl)c2C(=O)Nc2ncc(C#Cc3ccccc3)cc2C)CC1 [Compound 303, 1-(2-(4-acetylpiperazin-1-yl)ethyl)-4-chloro-N-(3-methyl-5-(phenylethynyl)pyridin-2-yl)-1H-pyrazole-5-carboxamide]
880	Cc1cc(C#Cc2ccccc2)cnc1NC(=O)c1c(Cl)cnn1C1CCCC(NC(=O)OC(C)(C)C)C1 (stereo not shown) [Compound 358, tert-butyl (3-(4-chloro-5-((3-methyl-5-(phenylethynyl)pyridin-2-yl)carbamoyl)-1H-pyrazol-1-yl)cyclohexyl)carbamate]
310	CC(=O)N1CC[C@@H](Cn2ncc(Cl)c2C(=O)Nc2ncc(C#Cc3ccccc3)cc2C)[C@H](F)C1 [Compound 208, 1-(((3S,4S)-1-acetyl-3-fluoropiperidin-4-yl)methyl)-4-chloro-N-(3-methyl-5-(phenylethynyl)pyridin-2-yl)-1H-pyrazole-5-carboxamide]
500	Cc1cc(C#Cc2cccc(F)c2)cnc1NC(=O)c1c(Cl)cnn1C[C@H]1COCCO1 [Compound 286, (S)-1-((1,4-dioxan-2-yl)methyl)-4-chloro-N-(5-((3-fluorophenyl)ethynyl)-3-methylpyridin-2-yl)-1H-pyrazole-5-carboxamide]
650	Cc1cc(C#Cc2ccccc2)cnc1NC(=O)c1c(Cl)cnn1C1CC2(C1)CN(C(=O)OC(C)(C)C)C2 [Compound 330, tert-butyl 6-(4-chloro-5-((3-methyl-5-(phenylethynyl)pyridin-2-yl)carbamoyl)-1H-pyrazol-1-yl)-2-azaspiro[3.3]heptane-2-carboxylate]
840	Cc1cc(C#Cc2ccccc2)cnc1NC(=O)c1c(Cl)cnn1[C@H]1C[C@@H]2CN(C(=O)C(C)(C)C)C[C@@H]2C1 [Compound 352, 4-chloro-1-[(3aR,5s,6aS)-2-(2,2-dimethylpropanoyl)octahydrocyclopenta [c]pyrrol-5-yl]-N-[3-methyl-5-(phenylethynyl)pyridin-2-yl]-1H-pyrazole-5-carboxamide]
320	Cc1cc(-c2cnn(-c3ccc(F)cc3)c2)cnc1NC(=O)c1c(Cl)cnn1C[C@@H]1CCOC1 [Compound 379, (S)-4-chloro-N-(5-(1-(4-fluorophenyl)-1H-pyrazol-4-yl)-3-methylpyridin-2-yl)-1-((tetrahydrofuran-3-yl)methyl)-1H-pyrazole-5-carboxamide]
780	Cc1cc(C#Cc2ccc(F)cc2)cnc1NC(=O)c1c(Cl)cnn1CC1(F)CCN(C(=O)C2CC2C)CC1 (stereo not shown) [Compound 348, 4-chloro-1-((4-fluoro-1-(2-methylcyclopropane-1-carbonyl)piperidin-4-yl)methyl)-N-(5-((4-fluorophenyl)ethynyl)-3-methylpyridin-2-yl)-1H-pyrazole-5-carboxamide]

Compound	IC50 [nM]
tert-butyl 4-(4-chloro-5-((3-fluoro-5-(phenylethynyl)pyridin-2-yl)carbamoyl)-1H-pyrazol-1-yl)-2-methylpiperidine-1-caboxylate [Compound 324]	640

Same assay, conditions: TREK-1 Thallium (Tl+) flux assay; values without footnote *12 are Method 1

Compound	IC50 [nM]
Cc1cc(C#Cc2cccs2)cnc1NC(=O)c1c(Cl)cnn1CC1CCN(C(=O)C(C)C)CC1 [Compound 76, 4-chloro-1-((1-isobutyrylpiperidin-4-yl)methyl)-N-(3-methyl-5-(thiophen-2-ylethynyl)pyridin-2-yl)-1H-pyrazole-5-carboxamide]	160
O=C(Nc1ncc(C#Cc2ccccc2)cc1F)c1c(Cl)cnn1C[C@H]1CCOC1 [Compound 60, (R)-4-chloro-N-(3-fluoro-5-(phenylethynyl)pyridin-2-yl)-1-((tetrahydrofuran-3-yl)methyl)-1H-pyrazole-5-carboxamide]	150
CC1(C(=O)N2CCC(n3ncc(Cl)c3C(=O)Nc3ncc(C#Cc4ccccc4)cc3F)CC2)CCC1 [Compound 112, 4-chloro-N-(3-fluoro-5-(phenylethynyl)pyridin-2-yl)-1-(1-(1-methylcyclobutane-1-carbonyl)piperidin-4-yl)-1H-pyrazole-5-carboxamide]	200
Cc1cc(C#Cc2cccc(F)c2)cnc1NC(=O)c1c(Cl)cnn1CC1CCN(C(=O)C2COCCO2)CC1 (stereo not shown) [Compound 104, 1-((1-(1,4-dioxane-2-carbonyl)piperidin-4-yl)methyl)-4-chloro-N-(5-((3-fluorophenyl)ethynyl)-3-methylpyridin-2-yl)-1H-pyrazole-5-carboxamide]	190
CC(=O)N1CCC(n2ncc(Cl)c2C(=O)Nc2c(F)cc(C#Cc3ccccc3)cc2F)CC1 [Compound 33, 1-(1-acetylpiperidin-4-yl)-4-chloro-N-(2,6-difluoro-4-(phenylethynyl)phenyl)-1H-pyrazole-5-carboxamide]	110
CC(=O)N1CC[C@H](n2ncc(Cl)c2C(=O)Nc2ncc(C#Cc3ccccc3)cc2C)[C@H](F)C1 [Compound 99, 1-((3R,4S)-1-acetyl-3-fluoropiperidin-4-yl)-4-chloro-N-(3-methyl-5-(phenylethynyl)pyridin-2-yl)-1H-pyrazole-5-carboxamide]	180
O=C(Nc1ncc(C#Cc2cccc(F)c2)cc1F)c1c(Cl)cnn1CC1CCOCC1 [Compound 50, 4-chloro-N-(3-fluoro-5-((3-fluorophenyl)ethynyl)pyridin-2-yl)-1-((tetrahydro-2H-pyran-4-yl)methyl)-1H-pyrazole-5-carboxamide]	140
CC(=O)N1CCC(n2ncc(Br)c2C(=O)Nc2ncc(C#Cc3ccccc3)cc2C)CC1 [Compound 17, 1-(1-acetylpiperidin-4-yl)-4-bromo-N-(3-methyl-5-(phenylethynyl)pyridin-2-yl)-1H-pyrazole-5-carboxamide]	40
CCC(=O)N1CCC(n2ncc(Cl)c2C(=O)Nc2ncc(C#Cc3ccccc3)cc2C)CC1 [Compound 41, 4-chloro-N-(3-methyl-5-(phenylethynyl)pyridin-2-yl)-1-(1-propionylpiperidin-4-yl)-1H-pyrazole-5-carboxamide]	130
CC(=O)N1CCC(C(C)n2ncc(Cl)c2C(=O)Nc2ncc(C#Cc3ccccc3)cc2C)CC1 (stereo not shown) [Compound 32, 1-(1-(1-acetylpiperidin-4-yl)ethyl)-4-chloro-N-(3-methyl-5-(phenylethynyl)pyridin-2-yl)-1H-pyrazole-5-carboxamide]	100
O=C(Nc1ncc(C#Cc2ccccc2)cc1F)c1c(Cl)cnn1C1CCN(C(=O)C(F)(F)F)CC1 [Compound 54, 4-chloro-N-(3-fluoro-5-(phenylethynyl)pyridin-2-yl)-1-(1-(2,2,2-trifluoroacetyl)piperidin-4-yl)-1H-pyrazole-5-carboxamide]	140
CC(=O)NC1CCCC(n2ncc(Cl)c2C(=O)Nc2ncc(C#Cc3ccccc3)cc2C)C1 (stereo not shown) [Compound 107, 1-(3-acetamidocyclohexyl)-4-chloro-N-(3-methyl-5-(phenylethynyl)pyridin-2-yl)-1H-pyrazole-5-carboxamide hydrofluoride]	190

The next lines start with the values.

IC50 [nM]	Compound
220	Cc1cc(C#Cc2ccc(F)cc2)cnc1NC(=O)c1c(Cl)cnn1C1CC2(C1)CN(C(=O)C1COCCO1)C2 (stereo not shown) [Compound 138, 1-(2-(1,4-dioxane-2-carbonyl)-2-azaspiro[3.3]heptan-6-yl)-4-chloro-N-(5-((4-fluorophenyl)ethynyl)-3-methylpyridin-2-yl)-1H-pyrazole-5-carboxamide]
240	Cc1cc(C#Cc2cccc(F)c2)cnc1NC(=O)c1c(Cl)cnn1C1CCN(C(=O)C(C)C)CC1 [Compound 152, 4-chloro-N-(5-((3-fluorophenyl)ethynyl)-3-methylpyridin-2-yl)-1-(1-isobutyrylpiperidin-4-yl)-1H-pyrazole-5-carboxamide]
220	CC(=O)N1CCCC(n2ncc(Cl)c2C(=O)Nc2ncc(C#Cc3ccccc3)cc2C)CC1 (stereo not shown) [Compound 131, 1-(1-acetylazepan-4-yl)-4-chloro-N-(3-methyl-5-(phenylethynyl)pyridin-2-yl)-1H-pyrazole-5-carboxamide]
